According to article PMC4858918, “Improving the N-terminal diversity of sansanmycin through mutasynthesis” (Microbial Cell Factories, 2016):
Values after ≈ are worked out from the molar mass of the structure shown.

Experiments:
[1] = Stability determination in KH2PO4 buffer; assay type: physicochemical; conditions: chemical stability, 0.05 M KH2PO4 buffer pH 6.0, room temperature (25 °C), HPLC peak areas, three parallel repeats
Experimental: As it is easier to get enough amount of sansanmycin MX-2 and MX-4, the stability test of sansanmycin A, MX-2 and MX-4 was performed in KH2PO4 buffer (pH 6.0) at room temperature.
Fig. 8 Stability of sansanmycin A, MX-2 and MX-4. a HPLC analysis of sansanmycin A at indicated days in KH2PO4 buffer (pH 6.0) at room temperature. b The changes of the level of sansanmycin A, MX-2 and MX-4 over time. All samples were analyzed by HPLC and quantified according to the areas of peaks. blue line, sansanmycin MX-2; red line, sansanmycin MX-4; green line, sansanmycin A
To dissect the stability of sansanmycin A and other sansanmycin analogues, compounds were dissolved in 0.05 M KH2PO4 buffer (pH adjusted to 6.0 with NaOH). All samples were incubated at 25 °C for 9 days. Each sample has three parallel repeats. Residual analogues were analyzed by HPLC and quantified by the peak areas.

M. tuberculosis H37Rv = assay: MIC, microplate Alamar blue assay (MABA); assay type: cell-based; conditions: Mycobacterium tuberculosis, standard and susceptible strain
E. coli ΔtolC mutant = assay: MIC, microdilution test (CLSI); conditions: Mueller-Hinton broth, 10^6 cells/ml, 37 °C, 24 h, visual observation, triplicate
P. aeruginosa 11 = assay: MIC, microdilution test (CLSI); conditions: Pseudomonas aeruginosa, 11, 24 h, read-out: MIC P. aeruginosa 11
[2] = test system: B. subtilis CMCC (B) 63501; assay: MIC, microdilution test (CLSI); conditions: Bacillus subtilis, 24 h, read-out: MIC B. subtilis CMCC (B) 63501

| SMILES | MIC (M. tuberculosis H37Rv) [µg/mL] | further results |
| --- | --- | --- |
| CSCC[C@H](NC(=O)N[C@@H](Cc1c[nH]c2ccccc12)C(=O)O)C(=O)NC(C(=O)N/C=C1/CC(O)C(n2ccc(=O)[nH]c2=O)O1)C(C)N(C)C(=O)[C@@H](N)Cc1cccc(O)c1 (some centres unmarked) [A, sansanmycin A] | – | compound remained after 6 days of incubation [1]: less than 10% |
| CC[C@@H](CO)NCCN[C@@H](CC)CO [Ethambutol] | 0.5 (≈ 2.45 µM) | – |
| NNC(=O)c1ccncc1 [Isoniazid] | 0.125 (≈ 0.911 µM) | – |
| CO[C@H]1/C=C/O[C@@]2(C)Oc3c(C)c(O)c4c(O)c(c(/C=N/N5CCN(C)CC5)c(O)c4c3C2=O)NC(=O)/C(C)=C\C=C\[C@H](C)[C@H](O)[C@@H](C)[C@@H](O)[C@@H](C)[C@H](OC(C)=O)[C@@H]1C [Rifampicin] | < 0.06 | – |
| [H]/N=C(/N)N[C@H]1[C@H](O)[C@@H](O)[C@H](O[C@@H]2O[C@@H](C)[C@](O)(C=O)[C@H]2O[C@@H]2O[C@@H](CO)[C@H](O)[C@@H](O)[C@@H]2NC)[C@@H](N/C(N)=N\[H])[C@@H]1O [Streptomycin] | 0.25 (≈ 0.43 µM) | MIC E. coli ΔtolC (E. coli ΔtolC mutant): 16 µg/mL (≈ 27.5 µM); MIC (P. aeruginosa 11): 4 µg/mL (≈ 6.88 µM); MIC [2]: 2 µg/mL (≈ 3.44 µM) |
